Publication PMC10387993, “New pyrimidine-N-β-D-glucosides: synthesis, biological evaluation, and molecular docking investigations” (Turkish Journal of Chemistry, 2023)
Converted amounts (≈) assume the structure as drawn. Where two headings read alike, the source gives them in different places.

What was measured:
Format in all cases: cell-based
E. coli ESBL ATCC 35218 = experiment: Microdilution MIC assay; conditions: Escherichia coli, ATCC35218; E. coli ESBL ATCC 35218, 24 h at 35 °C
Summary of the method: (§1)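 MICs come from a microwell dilution format incubated for 24 h at 35 °C, with the endpoint being the lowest concentration that prevented visible growth.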

[1] = system: S. aureus MRSA ATCC 46300; experiment: Microdilution MIC assay; conditions: Staphylococcus aureus; S. aureus MRSA ATCC 46300, 24 h at 35 °C; read-out: MIC
Summary of the method: as §1

S. mutans ATCC 35668 = experiment: Microdilution MIC assay; conditions: S. mutans ATCC 35668, 24 h at 35 °C
Summary of the method: as §1

[2] = system: P. aeruginosa AGME ATCC 27853; experiment: Microdilution MIC assay; conditions: Pseudomonas aeruginosa, ATCC27853; P. aeruginosa AGME ATCC 27853, 24 h at 35 °C
Summary of the method: as §1

[3] = system: S. aureus MSSA ATCC 29213; experiment: Microdilution MIC assay; conditions: Staphylococcus aureus, 24 h, S. aureus MSSA ATCC 29213, 24 h at 35 °C; read-out: MIC
Summary of the method: as §1

E. coli ATCC 25922 = experiment: Microdilution MIC assay; conditions: Escherichia coli, ATCC25922; E. coli ATCC 25922, 24 h at 35 °C
Summary of the method: as §1

[4] = LDH cytotoxic activity assay, HT29; conditions: human, HT29 cells
Summary of the method: (§2)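 About 5 × 10^3 cells per well, in triplicate, exposed to 25, 50, 75 and 100 μg/mL of test compound for 24 h at 37 °C, 5% CO2. Cells grown in DMEM or RPMI 1640 with 10% FBS. LDH activity read as absorbance at 492–630 nm.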

normal FL cells = experiment: cells; conditions: FL normal cells, MTT
Summary of the method: (§3)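 Cells were seeded at about 1 × 10^4 per well, brought to 200 μL with medium, and assessed by MTT: 4 h with MTT reagent, formazan dissolved in DMSO with Sorenson's buffer, absorbance read at 560 nm (690 nm reference). IC50 derived from percent inhibition relative to DMSO.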

in vitro = conditions: human, LC50
Summary of the method: as §3

[5] = LDH cytotoxic activity assay, HeLa; conditions: human, HeLa cells
Summary of the method: as §2

A549 = experiment: cells; conditions: Homo sapiens
Summary of the method: as §3

Hep3B = experiment: cells; conditions: Homo sapiens
Summary of the method: as §3

MCF7 = experiment: cells; conditions: Homo sapiens
Summary of the method: as §3

HT29 = experiment: cells; conditions: Homo sapiens
Summary of the method: as §3

C6 (Rat brain glioma) = experiment: cells; conditions: Rattus norvegicus
Summary of the method: as §3

HeLa = experiment: cells; conditions: Homo sapiens
Summary of the method: as §3

[6] = LDH cytotoxic activity assay, C6; conditions: rat, C6 glioma cells
Summary of the method: as §2

MIC (E. coli ESBL ATCC 35218): > 1000 µg/mL | MIC [1]: 500 µg/mL (≈ 1180 µM) | MIC (S. mutans ATCC 35668): 125 µg/mL (≈ 294 µM) | MIC (S. mutans ATCC 35668; Streptococcus mutans, ATCC35668, 24 h, read-out: MIC): 62.5 to 125 µg/mL (≈ 147 to 294 µM) | MIC [2]: > 1000 µg/mL | MIC [3]: 250 µg/mL (≈ 589 µM) | MIC (E. coli ATCC 25922): > 1000 µg/mL | GI50 (A549; A549, MTT): 19.4 µg/mL (≈ 45.8 µM) | IC50 (A549; A549, MTT, read-out: IC50): > 500 µg/mL | GI50 (Hep3B; MTT): 4.4 µg/mL (≈ 10.4 µM) | IC50 (Hep3B; MTT, read-out: IC50): 65.5 µg/mL (≈ 154 µM) | GI50 (MCF7; MCF7, MTT): 3.44 µg/mL (≈ 8.1 µM) | IC50 (MCF7; MCF7, MTT, read-out: IC50): > 500 µg/mL | GI50 (HT29; HT-29, HT29, MTT): 4.63 µg/mL (≈ 10.9 µM) | IC50 (HT29; HT-29, HT29, MTT, read-out: IC50): 26.7 µg/mL (≈ 62.9 µM) | GI50 (C6 (Rat brain glioma); C6, MTT): 8.13 µg/mL (≈ 19.2 µM) | IC50 (C6 (Rat brain glioma); C6, MTT, read-out: IC50): 27.8 µg/mL (≈ 65.4 µM) | GI50 (HeLa; MTT): 21.9 µg/mL (≈ 51.6 µM) | IC50 (HeLa; MTT, read-out: IC50): 52.2 µg/mL (≈ 123 µM)
Structure (SMILES): Cc1cccc(-c2cc(-c3ccccn3)nc(N[C@@H]3O[C@H](CO)[C@@H](O)[C@H](O)[C@H]3O)n2)c1 [Compound 4, N-[4-(3-methylphenyl)-6-pyridin-2-ylpyrimidin-2-yl]-β-D-glucopyranosylamine]
cytotoxicity at 24 h, 25 μg/mL ([4]; HT29, 25 μg/mL): 28.2% | cytotoxicity at 24 h, 50 μg/mL ([4]; HT29, 50 μg/mL): 35.7% | cytotoxicity at 24 h, 75 μg/mL ([4]; HT29, 75 μg/mL): 62.6% | cytotoxicity at 24 h, 100 μg/mL ([4]; HT29, 100 μg/mL): 74.9% | GI50 (normal FL cells): 6.77 µg/mL (≈ 15.9 µM) | IC50 (normal FL cells; read-out: IC50): 78.1 µg/mL (≈ 184 µM) | IC (total growth inhibition) (normal FL cells; read-out: TGI): 79.8 µg/mL | LC50 (concentration causing 50% net cell loss) (in vitro): > 500 µg/mL | cytotoxicity at 24 h, 25 μg/mL ([5]; 25 μg/mL): 26.9% | cytotoxicity at 24 h, 50 μg/mL ([5]; 50 μg/mL): 64.3% | cytotoxicity at 24 h, 75 μg/mL ([5]; 75 μg/mL): 77.1% | cytotoxicity at 24 h, 100 μg/mL ([5]; 100 μg/mL): 97.2% | LC50 (concentration causing 50% net cell loss) (A549; A549, read-out: LC50): > 500 µg/mL | IC (total growth inhibition) (A549; A549, MTT, read-out: TGI): > 500 µg/mL | IC (total growth inhibition) (Hep3B; MTT, read-out: TGI): 67.8 µg/mL | LC50 (concentration causing 50% net cell loss relative to time zero) (Hep3B; read-out: LC50): > 500 µg/mL | LC50 (concentration causing 50% net cell loss relative to time zero) (MCF7; MCF7, read-out: LC50): > 500 µg/mL | IC (total growth inhibition) (MCF7; MCF7, MTT, read-out: TGI): > 500 µg/mL | LC50 (concentration giving 50% net cell loss relative to time zero) (HT29; HT-29, read-out: LC50): > 500 µg/mL | IC (total growth inhibition) (HT29; HT-29, HT29, MTT, read-out: TGI): 31.9 µg/mL | LC50 (concentration giving 50% net cell loss relative to time zero) (C6 (Rat brain glioma); read-out: LC50): 77.4 µg/mL (≈ 182 µM) | IC (total growth inhibition) (C6 (Rat brain glioma); C6, MTT, read-out: TGI): 20.5 µg/mL | IC (total growth inhibition) (HeLa; MTT, read-out: TGI): 46 µg/mL | LC50 (concentration causing 50% net cell loss) (HeLa; read-out: LC50): 116 µg/mL (≈ 272 µM) | cytotoxicity at 24 h, 25 μg/mL ([6]; C6, 25 μg/mL): 22.1% | cytotoxicity at 24 h, 50 μg/mL ([6]; C6, 50 μg/mL): 49.3% | cytotoxicity at 24 h, 75 μg/mL ([6]; C6, 75 μg/mL): 68.9% | cytotoxicity at 24 h, 100 μg/mL ([6]; C6, 100 μg/mL): 89.2%
